biological target: T1, purified HLA DRB1*1501 (Homo sapiens, UniProt P01903+P01911); test: HLA-DR radioligand binding inhibition assay, DRB1*1501; settings: not given
T1 construct: purified from EBV transformed homozygous cell lines or single MHC allele transfected 721.221, C1R, or fibroblast lines; made in house
Method: (§1) Instead, wells of an opaque white 96-well Optiplate (Packard) are coated with 3 μg (100 μl@ 30 μg/ml) of HLA-specific antibody (Ab) that “capture” complexes of radiolabeled MHC and unlabeled peptide transferred from the molecular binding assay plate in 100 μl of 0.05% NP40/PBS. After a 3-hour incubation period, the supernatant is decanted and scintillation fluid (Microscint 20) added. Captured complexes are then measured on a microplate scintillation and luminescence counter (TopCount NXTTM; Packard).
(§2) HLA-DR purification. Fifteen distinct HLA-DR molecules were used in quantitative assays to measure the binding of peptides to solubilized HLA-DR molecules. […] Briefly, columns of inactivated Sepharose CL4B and Protein A Sepharose were used as pre-columns. HLA-DR molecules were captured by passage of lysates over LB3.1 monoclonal antibody (anti-HLA-DRA) columns. Antibody columns were washed with 10 mM Tris-HCL, pH8.0 with 1% (v/v) NP-40, followed by PBS containing 0.4% (w/v) n-octylglucoside.
(§3) Briefly, 1-10 nM of radiolabeled peptide was co-incubated for 2 days at either room temperature or 37° C. with 1 μM to 1 nM purified HLA-DR molecules in the presence of a cocktail of protease inhibitors. Assays were performed at various pH conditions, ranging from pH 4 to pH 7. […] After incubation, the percentage of HLA-DR-bound radioactivity is determined by capturing HLA-DR/peptide complexes on Optiplates (Packard Instruments, Meriden, Conn.) coated with the LB3.1 antibody and determining bound counts per minute using the TopCount microscintillation counter (Packard Instruments).

For `CC[C@H](C)[C@H](NC(=O)[C@@H](NC(=O)[C@@H]1CCCN1C(=O)[C@H](CC(=O)O)NC(=O)[C@@H](N)CO)C(C)C)C(=O)N[C@@H](CC(C)C)C(=O)N[C@@H](CC(N)=O)C(=O)N[C@H](C(=O)N[C@@H](CC(C)C)C(=O)N[C@@H](Cc1ccc(O)cc1)C(=O)NCC(=O)N1CCC[C@H]1C(=O)N[C@@H](CC(=O)O)C(=O)N[C@@H](CC(=O)O)C(=O)N1CCC[C@H]1C(=O)O)C(C)C` [Peptide 9019.0127], the IC50 was 5700 nM.

test system: 15 different HLA-DR molecules; test: HLA-DR binding assays, panel of 15 different HLA-DR molecules (breadth of binding); settings: number of the 15 HLA-DR molecules bound (binders: 1000 nM or better)

Going from `CC[C@H](C)[C@H](NC(=O)[C@H](CC(C)C)NC(=O)[C@H](CC(C)C)NC(=O)[C@H](CO)NC(=O)[C@H](C)NC(=O)[C@H](CC(N)=O)NC(=O)[C@@H]1CCCN1C(=O)[C@H](Cc1ccc(O)cc1)NC(=O)[C@@H](NC(=O)[C@@H](NC(=O)[C@H](CCC(=O)O)NC(=O)[C@H](CCCNC(=N)N)NC(=O)CN)[C@@H](C)CC)[C@@H](C)CC)C(=O)N[C@@H](CCC(N)=O)C(=O)N[C@@H](CC(N)=O)C(=O)O` [Peptide 9019.0112] to EVLILVHNLPQHLFQ [Peptide 9019.0107], the “Total XRN” value rises from 10 to 14.

`CC(C)C[C@H](NC(=O)[C@H](CO)NC(=O)[C@H](CC(C)C)NC(=O)[C@H](CC(N)=O)NC(=O)[C@@H](NC(=O)CNC(=O)[C@@H]1CCCN1C(=O)[C@H](CCCNC(=N)N)NC(=O)[C@H](Cc1ccc(O)cc1)NC(=O)[C@H](Cc1ccc(O)cc1)NC(=O)[C@@H](NC(=O)[C@H](Cc1ccc(O)cc1)NC(=O)[C@@H](N)CO)[C@@H](C)O)C(C)C)C(=O)N[C@@H](CO)C(=O)N[C@@H](CS)C(=O)O` [Peptide 9019.0128] and `CC(C)C[C@H](NC(=O)[C@@H](N)Cc1ccc(O)cc1)C(=O)N[C@@H](Cc1c[nH]c2ccccc12)C(=O)N[C@@H](Cc1c[nH]c2ccccc12)C(=O)N[C@H](C(=O)N[C@@H](CC(N)=O)C(=O)N[C@@H](CC(N)=O)C(=O)N[C@@H](CCC(N)=O)C(=O)N[C@@H](CO)C(=O)N[C@@H](CC(C)C)C(=O)N1CCC[C@H]1C(=O)N[C@H](C(=O)N[C@@H](CO)C(=O)N1CCC[C@H]1C(=O)N[C@@H](CCCNC(=N)N)C(=O)O)C(C)C)C(C)C` [Peptide 9019.0126] are the same in “Total XRN” value: 10 for the first, 10 for the second.

Going from `CC[C@H](C)[C@H](NC(=O)[C@H](CCCNC(=N)N)NC(=O)[C@H](CCC(=O)O)NC(=O)[C@H](CC(C)C)NC(=O)[C@@H](NC(=O)[C@H](CCC(N)=O)NC(=O)[C@H](CC(=O)O)NC(=O)[C@@H](N)CC(C)C)C(C)C)C(=O)N[C@@H](CO)C(=O)N[C@H](C(=O)N[C@@H](CCSC)C(=O)N[C@@H](CCCNC(=N)N)C(=O)N[C@@H](CC(C)C)C(=O)N1CCC[C@H]1C(=O)N[C@@H](CC(=O)O)C(=O)O)[C@@H](C)O` [Peptide 9019.0189] to `CC(C)C[C@H](NC(=O)[C@@H]1CCCN1C(=O)[C@H](CC(C)C)NC(=O)[C@H](CC(C)C)NC(=O)[C@@H]1CCCN1C(=O)[C@H](CC(C)C)NC(=O)[C@H](CC(C)C)NC(=O)[C@@H]1CCCN1C(=O)[C@@H]1CCCN1C(=O)[C@@H]1CCCN1C(=O)[C@@H]1CCCN1C(=O)[C@H](CC(C)C)NC(=O)[C@@H]1CCCN1C(=O)[C@H](CC(C)C)NC(=O)[C@H](C)N)C(=O)O` [Peptide 9019.0174], the “Total XRN” value falls from 12 to 8.

First: CC[C@H](C)[C@H](NC(=O)[C@H](CCC(N)=O)NC(=O)[C@H](CCCNC(=N)N)NC(=O)[C@H](CC(N)=O)NC(=O)CNC(=O)[C@H](CC(=O)O)NC(=O)[C@@H](NC(=O)[C@H](CCCNC(=N)N)NC(=O)[C@H](CCC(=O)O)NC(=O)CNC(=O)[C@H](CCCCN)NC(=O)[C@H](Cc1ccc(O)cc1)NC(=O)[C@H](Cc1c[nH]c2ccccc12)NC(=O)[C@H](CO)NC(=O)[C@@H](N)Cc1ccc(O)cc1)C(C)C)C(=O)O [Peptide 9019.0108]
Second: CC[C@H](C)[C@H](NC(=O)[C@@H](NC(=O)[C@H](CC(C)C)NC(=O)[C@H](CCCCN)NC(=O)[C@H](C)NC(=O)[C@@H](N)[C@@H](C)O)[C@@H](C)O)C(=O)N[C@@H](CCC(=O)O)C(=O)N[C@@H](CO)C(=O)N[C@H](C(=O)N1CCC[C@H]1C(=O)N[C@@H](Cc1ccccc1)C(=O)N[C@@H](CC(N)=O)C(=O)N[C@H](C(=O)N[C@@H](C)C(=O)N[C@@H](CCC(=O)O)C(=O)O)C(C)C)[C@@H](C)O [Peptide 9019.0106]
The “Total XRN” value of the first is lower: 8 for the first, 9 for the second.

First: CSCC[C@H](NC(=O)[C@H](CCCCN)NC(=O)[C@H](CS)NC(=O)[C@H](CCC(N)=O)NC(=O)[C@H](CCCCN)NC(=O)[C@H](CC(C)C)NC(=O)[C@H](CC(N)=O)NC(=O)[C@H](Cc1ccc(O)cc1)NC(=O)[C@H](CC(C)C)NC(=O)CN)C(=O)N[C@@H](CO)C(=O)N[C@@H](CC(C)C)C(=O)N[C@@H](CC(N)=O)C(=O)NCC(=O)N[C@@H](CCC(N)=O)C(=O)O [Peptide 9019.0191]
Second: CC[C@H](C)[C@H](NC(=O)[C@H](CC(C)C)NC(=O)[C@H](C)NC(=O)[C@H](CC(C)C)NC(=O)CNC(=O)[C@H](CO)NC(=O)CNC(=O)[C@H](CC(C)C)NC(=O)[C@H](CCC(=O)O)NC(=O)[C@H](CCCNC(=N)N)NC(=O)[C@H](CC(C)C)NC(=O)[C@H](CO)NC(=O)[C@H](CCCNC(=N)N)NC(=O)[C@@H](N)CC(C)C)C(=O)N[C@@H](Cc1c[nH]cn1)C(=O)O [Peptide 9019.0057]
The “Total XRN” value of the first is lower: 6 for the first, 12 for the second.

Compared with `CC[C@H](C)[C@H](NC(=O)[C@H](CC(N)=O)NC(=O)[C@@H]1CCCN1C(=O)[C@@H](NC(=O)[C@H](Cc1ccccc1)NC(=O)[C@H](CC(C)C)NC(=O)[C@H](CCC(=O)O)NC(=O)[C@@H](N)CCC(N)=O)[C@@H](C)CC)C(=O)N[C@H](C(=O)N[C@H](C(=O)N[C@@H](CC(N)=O)C(=O)N[C@@H](CC(N)=O)C(=O)N[C@@H](CO)C(=O)NCC(=O)N[C@@H](CO)C(=O)O)C(C)C)[C@@H](C)O` [Peptide 9019.0123], `CC(C)C[C@H](NC(=O)[C@H](CO)NC(=O)[C@H](C)NC(=O)[C@H](CC(N)=O)NC(=O)[C@@H](NC(=O)[C@@H]1CCCN1C(=O)[C@H](CC(C)C)NC(=O)[C@H](Cc1ccc(O)cc1)NC(=O)[C@@H](NC(=O)[C@@H](N)CC(C)C)[C@@H](C)O)[C@@H](C)O)C(=O)N[C@@H](CO)C(=O)N[C@@H](Cc1ccccc1)C(=O)N[C@@H](CC(C)C)C(=O)N[C@@H](CCC(N)=O)C(=O)N[C@@H](CC(=O)O)C(=O)O` [Peptide 9019.0031] is higher in “Total XRN” value: 9 for the first, 12 for the second.

Compared with `CC[C@H](C)[C@H](NC(=O)[C@H](CCCNC(=N)N)NC(=O)CNC(=O)[C@H](CCCNC(=N)N)NC(=O)[C@@H](NC(=O)[C@@H](NC(=O)[C@H](CCC(N)=O)NC(=O)[C@H](CC(C)C)NC(=O)[C@H](CC(N)=O)NC(=O)[C@H](CCC(N)=O)NC(=O)[C@H](Cc1ccccc1)NC(=O)[C@@H](NC(=O)[C@H](CO)NC(=O)[C@@H](N)CC(C)C)C(C)C)C(C)C)[C@@H](C)CC)C(=O)N[C@@H](CC(C)C)C(=O)O` [Peptide 9019.0052], `CC[C@H](C)[C@H](NC(=O)[C@@H](NC(=O)[C@H](Cc1c[nH]cn1)NC(=O)[C@H](CC(C)C)NC(=O)[C@@H](NC(=O)[C@H](CC(C)C)NC(=O)[C@@H](N)Cc1ccccc1)[C@@H](C)O)C(C)C)C(=O)N[C@@H](CCCCN)C(=O)N[C@@H](CO)C(=O)N[C@@H](CC(=O)O)C(=O)N[C@@H](CC(C)C)C(=O)N[C@H](C(=O)N[C@@H](CC(N)=O)C(=O)N[C@@H](CCC(=O)O)C(=O)N[C@@H](CCC(=O)O)C(=O)O)C(C)C` [Peptide 9019.0114] is lower in “Total XRN” value: 14 for the first, 11 for the second.

With `CC[C@H](C)[C@H](NC(=O)[C@@H](NC(=O)[C@@H](NC(=O)[C@H](Cc1ccccc1)NC(=O)[C@H](CCCNC(=N)N)NC(=O)[C@H](CCC(N)=O)NC(=O)[C@@H]1CCCN1C(=O)[C@H](CC(=O)O)NC(=O)[C@H](CCCNC(=N)N)NC(=O)[C@H](C)NC(=O)[C@H](CCSC)NC(=O)[C@H](CCCNC(=N)N)NC(=O)[C@H](CO)NC(=O)[C@@H](N)Cc1ccccc1)C(C)C)C(C)C)C(=O)N[C@@H](CCC(N)=O)C(=O)O` [Peptide 9019.0004] the “Total XRN” value was 10.

biological target: T2, purified HLA DRB5*0101 (Homo sapiens, UniProt P01903+Q30154); test: HLA-DR radioligand binding inhibition assay, DRB5*0101; settings: IC50 nM purified HLA DRB5 *0101, purified HLA DRB5*0101
T2 construct: purified from EBV transformed homozygous cell lines or single MHC allele transfected 721.221, C1R, or fibroblast lines; made in house
Method: as §1, §2, §3

`CC[C@H](C)[C@H](NC(=O)[C@@H](NC(=O)[C@@H]1CCCN1C(=O)[C@H](CC(=O)O)NC(=O)[C@@H](N)CO)C(C)C)C(=O)N[C@@H](CC(C)C)C(=O)N[C@@H](CC(N)=O)C(=O)N[C@H](C(=O)N[C@@H](CC(C)C)C(=O)N[C@@H](Cc1ccc(O)cc1)C(=O)NCC(=O)N1CCC[C@H]1C(=O)N[C@@H](CC(=O)O)C(=O)N[C@@H](CC(=O)O)C(=O)N1CCC[C@H]1C(=O)O)C(C)C` [Peptide 9019.0127] was tested, and the IC50 was > 20000 nM.
